Assay [1] has as its system A. baumannii (ΔabaI). Briefly: A. baumannii motility assay on soft agar. The format is cell-based, Acinetobacter baumannii. The note with it: for IC50: Acinetobacter baumannii, read-out: IC50 value, motility inhibition; for concentration preventing migration (comparable to ΔabaI mutant): (R)-OH-dDHL supplemented 0.3% soft agar.
Assay [2] deals with T1, AbaR (Acinetobacter nosocomialis, UniProt A0A0N8YGA2). In words: AbaR antagonism reporter gene. The format is cell-based, Acinetobacter baumannii. The note with it: for AbaR antagonistic activity (in words): primary screening data.
The next assay concerns wild-type A. baumannii. Briefly: A. baumannii biofilm assay. The note with it: Acinetobacter baumannii, read-out: inhibition of biofilm formation. In kind it is cell-based.
The test system of assay [3] is A. baumannii (ΔabaI). Briefly: A. baumannii biofilm assay. The format is cell-based, Acinetobacter baumannii. Conditions: AHL at 100 µM, crystal violet, 24 h; for reduction of biofilm recovery: (R)-OH-dDHL added; for inhibition of biofilm formation (in words): biofilm recovery with (R)-OH-dDHL.
For assay [4], the target named is T1, AbaR. In words: AbaR agonism reporter gene. In kind it is cell-based, Acinetobacter baumannii. Conditions: for Activation [%]: AHLs at 100 µM, normalized to (R)-OH-dDHL at 100 µM (set to 100%), error ≤ ±10%; for EC50: EC50, AHLs over 200 pM – 200 µM; for AbaR agonism (in words): 100 µM.
Assay [5] addresses T1, AbaR. The note with it: identical A. baumannii reporter strain; ref 43 (Garner et al.); cited from earlier work.
A further assay deals with LasR. The note with it: cited from earlier work.
Setting [6] is: AHLs over 10 nM – 100 µM against (R)-OH-dDHL at 0.70 µM.

One may read the IC50 as the concentration that gives 50% inhibition. Broadly, the inhibition is the drop in the measured response relative to a control, in per cent. Usually EC50 stands for the concentration that produces a half-maximal response.

The structures appear in SMILES notation. Several values for one entry are separate records, joined by “and”; a condition that tells them apart may be missing. Equal entries are not always repeated. Where two headings read alike, the source gives them in different places. Where only a bound is given, the exact number is not on record here.

T1 sequence (A0A0N8YGA2 whole entry): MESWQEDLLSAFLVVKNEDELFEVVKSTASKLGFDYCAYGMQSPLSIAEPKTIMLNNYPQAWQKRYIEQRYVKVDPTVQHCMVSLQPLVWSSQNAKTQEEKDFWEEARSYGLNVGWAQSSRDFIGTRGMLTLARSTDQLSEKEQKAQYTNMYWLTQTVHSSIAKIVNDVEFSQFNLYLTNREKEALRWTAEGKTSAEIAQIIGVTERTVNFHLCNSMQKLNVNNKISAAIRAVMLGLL

Consider `O=C(Cc1ccccc1I)N[C@H]1CCOC1=O` [Compound C12, 2-iodo-PHL], for which the IC50 in the assay on A. baumannii (ΔabaI) [1] is approximately 40 µM; at AbaR [2] it was 6.13 µM. The compound further showed an inhibition at 100 µM against AbaR [2] of 80%.
Regarding `O=C(Cc1ccccc1Br)N[C@H]1CCOC1=O` [Compound C9], at AbaR [2], the midpoint of inhibition, the IC50, lay at 17.5 µM; testing at 100 µM gave an inhibition of 97%; the “AbaR antagonistic activity (in words)” value is recorded as “moderately to strongly inhibitory”.
With `O=C(Cc1ccc(Cl)cc1)N[C@H]1CCOC1=O` [Compound C5], the inhibition at 100 µM on AbaR [2] stood at 78%. Moreover, on AbaR [2] (setting [6]), the IC50 was 16.7 µM.
Take `O=C(Cc1ccc(I)cc1)N[C@H]1CCOC1=O` [Compound C10, 4-iodo PHL]: the inhibition at 100 µM is approximately 40% in the assay on wild-type A. baumannii and 91% against AbaR [2]. Further, the “reduction of biofilm recovery” value in the assay on A. baumannii (ΔabaI) [3] is listed as ~ 40%. For the same compound, the “inhibition of biofilm formation (in words)” value (“inhibition … (in words)” for short) with A. baumannii (ΔabaI) [3] is on record as “inhibit biofilm formation to significant levels”. For the same compound, the IC50 in the assay on A. baumannii (ΔabaI) [1] was approximately 70 µM; at AbaR [2] it was 7.06 µM.
As for `CCCCCCCC(=O)NC1CCOC1=O` (stereo not drawn) [Compound A3, octanoyl-HL], the “Inhibition [%]” value at AbaR [2] (AHLs at 100 µM against (R)-OH-dDHL at 0.70 µM, error ≤ ±10%) came to 60%.
On AbaR [2] (setting [6]), `O=C(Cc1ccc(F)cc1)N[C@H]1CCOC1=O` [Compound C2] registered an IC50 of more than 25 µM.
For the compound `CCCCCCCCC[C@H](O)CC(=O)N[C@H]1CCOC1=O` [(S)-OH-dDHL, N-(3’-hydroxydodecanoyl)-L-HL], the “Activation [%]” value on AbaR [4] is 90%. The EC50 on AbaR [4] is 29 µM and 28.9 µM; on AbaR [5] it was 0.82 µM.
Regarding `O=C(Cc1cccc(Cl)c1)N[C@H]1CCOC1=O` [Compound C6, 3-chloro PHL], the concentration for half-maximal inhibition (IC50) in the assay with A. baumannii (ΔabaI) [1] is approximately 40 µM; against AbaR [2], 5.47 µM. This compound had an inhibition at 100 µM on AbaR [2] of 83%.
At AbaR [2], `O=C(Cc1ccc(Br)cc1)N[C@H]1CCOC1=O` [Compound 8, 4-bromo PHL] had an IC50 of 7.83 µM and an inhibition at 100 µM of 71%.
On AbaR [2], `O=C(CCc1ccccc1)N[C@H]1CCOC1=O` [Compound B10, phenylpropanoyl HL] displayed a concentration for half-maximal inhibition (IC50) of 11 µM and an inhibition at 100 µM of 72%.
For `CCCCCCC(=O)N[C@H]1CCOC1=O` [Compound 4, heptanoyl-HL], in that order: 13.7 µM and 75%.
Consider `CCCCCC(=O)CC(=O)N[C@H]1CCOC1=O` [Compound 1, 3-oxo-octanoyl-HL], for which the LasR inhibition in the assay on LasR was 50%. Besides, the IC50 in the assay with LasR (read-out: IC50 (LasR)) is 0.11 µM; against AbaR [2] it was 2.91 µM. The “inhibition … (in words)” value with A. baumannii (ΔabaI) [3] is given as “inhibit biofilm formation to significant levels”. For the same compound, the “AbaR agonism (in words)” value at AbaR [4] was “limited AbaR agonism”. For the same compound, the “concentration preventing migration (comparable to ΔabaI mutant)” value with A. baumannii (ΔabaI) [1] was “less than 20 µM”. Moreover, the inhibition at 100 µM at AbaR [2] stood at 73%.
Regarding `O=C(Cc1cccc([N+](=O)[O-])c1)N[C@H]1CCOC1=O` [Compound C14, 3-nitro PHL], the IC50 with A. baumannii (ΔabaI) [1] was approximately 70 µM; on AbaR [2], 8 µM. The same compound had an inhibition at 100 µM against AbaR [2] of 70%.
Regarding `CCCCCCCCC[C@@H](O)CC(=O)N[C@H]1CCOC1=O` [(R)-OH-dDHL, N-(3’-hydroxydodecanoyl)-L-HL, reference compound], on AbaR [4], the “Activation [%]” value stood at 100%. In addition, the EC50 was 0.7 µM and 0.699 µM on AbaR [4]; 0.67 µM on AbaR [5]. Further, on AbaR [4] (from EC50 values), the “fold more active than (S)-OH-dDHL (AbaR activation)” value was ~ 40 fold.
`O=C(Cc1ccccc1Cl)N[C@H]1CCOC1=O` [Compound C7] gave an inhibition at 100 µM against AbaR [2] of 83%. Further, at AbaR [2] (setting [6]), the IC50 is 18.5 µM.
For `O=C(Cc1cccc(Br)c1)N[C@H]1CCOC1=O` [Compound C8, 3-bromo PHL], the inhibition at 100 µM with wild-type A. baumannii is approximately 40%. In the assay with A. baumannii (ΔabaI) [3], the “reduction of biofilm recovery” value is reported as ~ 40% and the “inhibition … (in words)” value is given as “inhibit biofilm formation to significant levels”. In the assay on A. baumannii (ΔabaI) [1], the “concentration preventing migration (comparable to ΔabaI mutant)” value is recorded as “less than 20 µM” and the IC50 is approximately 7 µM. Also, on AbaR [2], the IC50 stood at 5.06 µM, at 100 µM the inhibition was 90% and the “AbaR antagonistic activity (in words)” value is “moderately to strongly inhibitory”.
With `CCCCCCCCCC(=O)NC1CCOC1=O` (stereo not drawn) [Compound A7, decanoyl-HL], at AbaR [4], the “AbaR agonism (in words)” value is on record as “limited AbaR agonism” and the “Activation [%]” value came out at 3%.
On to `CCCCCCCCCCCCCC(=O)NC1CCOC1=O` (stereo not drawn) [Compound A8, tetradecanoyl-HL], for which, on AbaR [4], the “AbaR agonism (in words)” value was “limited AbaR agonism” and the “Activation [%]” value came to 9%.
In the case of `O=C(Cc1cccc(I)c1)N[C@H]1CCOC1=O` [Compound C11, 3-iodo PHL], in the assay on A. baumannii (ΔabaI) [1], the “concentration preventing migration (comparable to ΔabaI mutant)” value is on record as “less than 20 µM” and the IC50 is approximately 15 µM. At AbaR [2], this compound showed an IC50 of 2.32 µM and an inhibition at 100 µM of 91%.
As to `CCCCCCCCCC(=O)CC(=O)N[C@H]1CCOC1=O` [Compound 2], at AbaR [4], the “Activation [%]” value turned out to be 62% and it took 7.57 µM to reach a half-maximal effect (EC50).
Take `CCCCCCCCCCCC(=O)NC1CCOC1=O` (stereo not drawn) [Compound A5, dodecanoyl HL]: at AbaR [4], the “AbaR agonism (in words)” value was “no agonistic activity”.

The values are drawn from PMC3477293 (ACS chemical biology, 2012).
